According to article PMC8305768, “Design, Synthesis and Antiparasitic Evaluation of Click Phospholipids” (Molecules, 2021):
Structures can show the parent of a compound that is named as a salt. Where two headings read alike, the source gives them in different places.

Assays:
[1] = tested on: L. donovani strain BPK190 amastigotes; experiment: Activity against L. donovani intramacrophage amastigotes (bone marrow-derived macrophages, qPCR); assay type: cell-based, Leishmania donovani; settings: infected bone marrow-derived macrophages, 48 h; for inhibition of growth at 5 µM: Leishmania donovani, Macrophage, read-out: Parassite Load Reduction (%)
Experimental: L. donovani strain BPK 190 [55] was cultivated at 25 °C in modified Medium199 (Sigma-Aldrich, with 20% heat-inactivated FCS, 40 mM HEPES pH 7.4, 0.2% NaHCO3, 100 μM adenin, 1.2 μg/mL 6-biopterin and 10 μg/mL haem, with 1 × Pen/Strep/l-glutamine (Sigma, Saint Louis, MI, USA), pH 7.0).
Activity against L. donovani strain BPK190 was tested in vitro using bone marrow-derived macrophages as host cells. Infection was established for 24 h prior to the addition of compounds from 10 mM stocks in DMSO. Parasite load was determined 48 h later by quantifying Leishmania actin DNA relative to mouse actin DNA using real time qPCR as described.

WI-38 cells = experiment: Cytotoxicity assay WI-38 (CellTiter-Glo); assay type: cell-based; settings: compounds 10 μM; miltefosine 10 μM or 1 μM
Source text: Early ADMET profiling: The early ADMET profiling of the new derivatives involved a group of assays widely used in drug development as part of the preclinical in vitro toxicity studies. In particular our panel included hERG inhibition, five cytochromes P450 (CYP1A2, CYP2C9, CYP2C19, CYP2D6 and CYP3A4), two cell-lines (A549, epithelial human lung adenocarcinoma, WI38 and foetal lung fibroblasts), Aurora B kinase and mitochondrial toxicity, in addition to the parasite relevant toxicity against THP1 macrophages. The compounds were tested at 10 μΜ, whilst the miltefosine control was tested at 10 μΜ or 1 μM. The toxicity of the new click phospholipids is depicted in Figure 3 in a traffic light format (from red through yellow to green for decreasing ADMET liabilities).
Cytotoxicity assay: A549 cells and WI-38 cells were grown on surface-modified T175 cell culture flasks in Dulbecco’s modified Eagle medium with 10% foetal calf serum (FCS), streptomycin (100 μg/mL) and 100 U/mL penicillin G. At about 80% confluency, cells were washed, trypsinized, resuspended and counted in RPMI-1640 medium before seeding (in triplicate) into white 384-well microtiter plates (20 μL) at 500 cells/well and incubated at 37 °C in the presence of 5% CO2 for 24 h. A total of 20 μL/well of CellTiter-Glo (CTG) reagent (Promega Corp., Madison, WI, USA) was added to each well, and plates were read using an EnVision Multilabel 2103 Reader after a 10-min incubation in the dark. Dose–response assays for compounds made use of 11-point curves. Each test compound (200 nL of 10 mM top concentration in 100% v/v DMSO) was added to cells seeded in polystyrene 384-well cell culture microtiter plates using the Echo 550 Liquid Handler and read after 24 h of incubation at 37 °C in the presence of 5% CO2 using CTG as described above. The compounds/positive control (paclitaxel with final concentration of 10 μM and 1% v/v DMSO) and no compound (final 1% v/v DMSO) were added into the 384-well plates (200 nL/well; 1% v/v DMSO) using the Echo 550 Liquid Handler. The raw luminescence signal of each sample was converted into the percentage of cell growth.

[2] = tested on: L. infantum MHOM/TN/80/LEM235 intracellular amastigotes; experiment: Activity against L. infantum MHOM/TN/80/LEM235 intramacrophage amastigotes (infected THP-1, Giemsa staining); assay type: cell-based, Leishmania infantum; settings: for Selectivity Index CC50/IC50: CC50 THP-1 / IC50 L. infantum MHOM/TN/80/LEM235; for IC50: Leishmania infantum, read-out: L. infantum MHOM/TN/80/LEM235 intracellular amastigotes IC50 ± SD
Experimental: THP-1 cells were differentiated with […] retinoic acid (Sigma, Saint Louis, MI, USA) for 3 days at 37 °C and 5% CO2. Infection of THP-1 cells with promastigotes was achieved by mixing the THP-1 and the parasite cultures at a ratio of 1:4 and incubation at 37 °C and 5% CO2. The next day cells were washed by centrifugation at 400 × g for 10 min, the pellet was resuspended in RPMI medium, and the suspension was overlaid with an equal volume of Histopaque 1077 (Invitrogen, Waltham, MA, USA). The free promastigotes were removed by centrifugation at 1000 × g for 20 min. The cell layer was washed with PBS twice and resuspended in RPMI at 4 × 10^5 cells/mL. Infection rate was assessed microscopically by Giemsa staining of the infected THP-1 suspension. An amount of 200 µL of infected THP-1 was plated in a 24-well tissue culture plate (Cellstar®, Greiner) (Sigma-Aldrich Chemie GMBH, Taufkirchen, Germany) and mixed with an equal volume of the appropriate compound concentration (compounds were dissolved in DMSO/ethanol, 50/50 v/v, to a final concentration of 65 mM and linear 5-fold dilutions ranging from 100 to 0.8 µM were done in the culture medium). Incubation proceeded for 72 h at 37 °C and 5% CO2, and the percentage of infected cells was monitored microscopically after Giemsa staining.

Aurora B kinase = biological target: T1, Aurora B kinase (Homo sapiens, UniProt Q96GD4); experiment: Aurora B kinase assay (ADP-Glo); assay type: biochemical; settings: compounds 10 μM; miltefosine 10 μM or 1 μM; read-out: % inhibition ± SD at 10 μΜ Aurora B
T1 construct: purchased Promega Corp
T1 sequence (Q96GD4 whole entry): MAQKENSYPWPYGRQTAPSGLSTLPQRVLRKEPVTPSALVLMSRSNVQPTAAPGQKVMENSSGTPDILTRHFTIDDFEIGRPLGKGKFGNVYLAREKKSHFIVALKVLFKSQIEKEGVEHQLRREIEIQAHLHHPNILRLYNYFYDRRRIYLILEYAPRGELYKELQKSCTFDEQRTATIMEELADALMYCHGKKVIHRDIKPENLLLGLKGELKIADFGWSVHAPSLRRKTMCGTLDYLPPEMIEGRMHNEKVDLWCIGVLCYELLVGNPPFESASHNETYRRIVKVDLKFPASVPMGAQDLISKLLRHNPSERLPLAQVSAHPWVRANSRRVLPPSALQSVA
Experimental: Aurora B kinase assay: Inhibition of Aurora B kinase was determined using the ADP-Glo Kinase Enzyme System (Promega Corp., Madison, WI, USA). The positive control was SU6656 at a final concentration of 1 μM, with the NC being DMSO at the same concentration (v/v). An enzyme master mix containing 1 × buffer, 50 μM DTT and 17.5 ng/μL ([…]) Aurora B (all reagents provided in the kit) was prepared. A substrate master mix containing 1 × buffer, 36 μM adenosine triphosphate (ATP) and 7.5 ng/μL (15 ng/well) myelin basic protein (MBP) as a substrate (buffer and MBP were provided in the Aurora B Kinase Enzyme System; ultrapure ATP was provided in the ADP-Glo Kinase Assay System) was prepared. Two microliters of the enzyme master mix and 2 μL of the substrate master mix were added to each well of a 384-well low-volume plate. The plate was sealed using Thermowell sealing tape (Corning Inc., Corning, NY, USA) and incubated for 45 min at rt. The enzymatic reaction was stopped by adding 4 μL of ADP-Glo reagent (provided in the ADP-Glo Kinase Assay System) and the plate sealed using Thermowell sealing tape and incubated for 40 min at rt. Following this, 8 μL of detection reagent was added to each well, and the plate was sealed again and incubated for 45 min at rt, with the luminescence measured using the EnVision Multilabel 2103 Reader (PerkinElmer, Waltham, MA. USA). DMSO concentration was tolerated up to 2% v/v final.

SMILES	inhibition of growth at 5 µM [1]	% cell growth ± SD at 10 μΜ W1-38 (WI-38 cells)	Selectivity Index CC50/IC50 [2]	IC50 ([2]; THP-1, 72 h)	inhibition at 10 µM (Aurora B kinase)	IC50 ([2]; infected THP-1 cells, 72 h)	Parassite Load Reduction (%) ([1]; 5 μM)
C[N+](C)(C)CCOP(=O)([O-])OCCCCCCCCCCCn1cc(CCCCCCCCC(=O)O)nn1 [Compound 34, 11-(4-(8-carboxyoctyl)-1H-1,2,3-triazol-1-yl)undecyl (2-(trimethylammonio)ethyl) phosphate inner salt]	43.8%						
CCCCCCCCCCCCCCCCOP(=O)([O-])OCC[N+](C)(C)C [Miltefosine, hexadecylphosphocholine, reference compound]	44.3%	113.50%	4.9	6.68 ± 0.96 µM	-12.5%		
C[N+](C)(C)CCCOP(=O)([O-])OCCCCCCCCCCCn1cc(CC2CCCCC2)nn1 [Compound 33, 11-(4-(cyclohexylmethyl)-1H-1,2,3-triazol-1-yl)undecyl (3-(trimethylammonio)propyl) phosphate inner salt]	47.8%	136.32%					
C[N+](C)(C)CCOP(=O)([O-])OCCCCCCCCCCCn1cc(CC2CCCCC2)nn1 [Compound 29, 11-(4-(cyclohexylmethyl)-1H-1,2,3-triazol-1-yl)undecyl (2-(trimethylammonio)ethyl) phosphate inner salt]	41.7%	92.93%	> 200		-6.17%	0.5 ± 0.2 µM	
C[N+](C)(C)CCOP(=O)([O-])OCCCCCCCCCCCn1cc(CCCCCCCCNC(=O)OCc2ccccc2)nn1 [Compound 32, 11-(4-(8-(((benzyloxy)carbonyl)amino)octyl)-1H-1,2,3-triazol-1-yl)undecyl (2-(trimethylammonio)ethyl) phosphate inner salt]	0.7%						abolished the activity
C[N+](C)(C)CCOP(=O)([O-])OCCCCCn1cc(CCCCCCCCNC(=O)OCc2ccccc2)nn1 [Compound 31, 5-(4-(8-(((benzyloxy)carbonyl)amino)octyl)-1H-1,2,3-triazol-1-yl)pentyl (2-(trimethylammonio)ethyl) phosphate inner salt]	59.2%	123.63%					
C[N+](C)(C)CCOP(=O)([O-])OCCCCCn1cc(CCCCCCCCN)nn1 [Compound 35, 5-(4-(8-aminooctyl)-1H-1,2,3-triazol-1-yl)pentyl (2-(trimethylammonio)ethyl) phosphate inner salt]	69.1%	119.10%					
CCCCCCCc1nnc(CCCCCCCCCCOP(=O)([O-])OCC[N+](C)(C)C)o1 [Compound 65, 10-(5-heptyl-1,3,4-oxadiazol-2-yl)decyl (2-(trimethylammonio)ethyl) phosphate inner salt]		77.74%					
CCCCCCCCc1noc(CCCCCOP(=O)([O-])OCC[N+](C)(C)C)n1 [Compound 53, 5-(3-octyl-1,2,4-oxadiazol-5-yl)pentyl (2-(trimethylammonio)ethyl) phosphate inner salt]		83.83%					
CCCCCc1cn(CCCCCCCCCCCOP(=O)([O-])OCC[N+](C)(C)C)nn1 [Compound 25, 11-(4-pentyl-1H-1,2,3-triazol-1-yl)undecyl (2-(trimethylammonio)ethyl) phosphate inner salt]	0%	93.46%	> 10.7		-10.3%	9.33 ± 0.99 µM	
C[N+](C)(C)CCOP(=O)([O-])OCCCCCCCCCCCn1cc(CC2CCCC2)nn1 [Compound 28, 11-(4-(cyclopentylmethyl)-1H-1,2,3-triazol-1-yl)undecyl (2-(trimethylammo nio)ethyl) phosphate inner salt]	0%	114.04%	> 66.7		-11.7%	1.5 ± 0.4 µM	
